Data on 22 molecules can be found in US20240158370A1, “CK1 alpha AND DUAL CK1 alpha / GSPT1 DEGRADING COMPOUNDS” (Innovo Therapeutics, Inc., priority 2022, published 2024).

Usually DC50 stands for the midpoint of the concentration-degradation curve. A higher DC50 goes with degradation only at high concentration.

One test deals with T1, CK1α (Homo sapiens, UniProt P48729+Q96SW2).
T1 construct: CSNK1A1-HiBit KI HEK293(LgBit) Cells; host or cells: HEK293(LgBit) knock-in cells
The test can be described thus: HiBiT degradation assay, CK1α, Procedure A. The test is classed as cell-based. On the procedure:
(§1) Compounds were spotted onto Cornin 384-Well, Cell Culture-Treated, Flat-Bottom, Low Flange Microplate (Fisher Scientific, Catalog #07-201-013) using a Tecan D300e digital dispenser. Ten-point dose response curves spanning from 10 μM to 0.005 μM with a 0.1% DMSO tolerance were used.
(§2) Cells were dissociated from tissue 182 cm^2 Tissue Culture Flask (CellTreat Catalog #229351) by washing the cells with PBS (Fisher Scientific Catalog #BP3994) followed by dissociation with Trypsin-EDTA (0.25%) (Thermo Scientific Catalog #25200056). Trysin was neutralized and cells were resuspended with DMEM+10% FBS. Cells were centrifuged for 5 minutes at 1200 RPMs. Cell culture media was aspirated off and cells were resuspended with DMEM+10% FBS. Cell density was determined using a Denovix CellDrop BF cell counter. Cell density was adjusted to 1×10^6 cells/ml. 40 μl of cells was added to compound treated tissue culture plates and incubated for six hours at 37° C. After six hours, cell culture plates were removed from tissue culture incubator and cooled to room temperature. 40 μl of Nano-GloHiBiT Lytic Detection Reagent (Promega, Catalog #N3040) was added to each well. Plates were placed on an orbital shaker (600 rpm) for 20 minutes. Luminescence was measured using an Envsion plate reader (Perkin Elmer). DC50 curves and Ymin were generated using a 4-parameter curve fit with GraphPad Prism software (Prism Corporation).
(§3) Results from the HiBiT assay (DC50 (nM) and Ymin (% remaining)) are shown below. All CK1α data was generated according to Procedure A. GSPT1 data for Examples 1-600, 603-620 and 703-705 was generated according to Procedure A. GSPT1 data for Examples 601, 621-702 and 706-735 was generated according to Procedure B.
(HiBiT is a short tag that completes a luciferase, so light tracks the accessible tagged protein.)

Another test has as its target GSPT1 (Homo sapiens, UniProt P15170+Q96SW2). The test can be described thus: HiBiT degradation assay, GSPT1, Procedure A. The class given is cell-based. Set-up: HiBit-GSPT1 KI HEK293(LgBit) Cells; host or cells: HEK293(LgBit) knock-in cells. On the procedure: as §1, §2, §3

GSPT1, sequence (P15170 whole entry): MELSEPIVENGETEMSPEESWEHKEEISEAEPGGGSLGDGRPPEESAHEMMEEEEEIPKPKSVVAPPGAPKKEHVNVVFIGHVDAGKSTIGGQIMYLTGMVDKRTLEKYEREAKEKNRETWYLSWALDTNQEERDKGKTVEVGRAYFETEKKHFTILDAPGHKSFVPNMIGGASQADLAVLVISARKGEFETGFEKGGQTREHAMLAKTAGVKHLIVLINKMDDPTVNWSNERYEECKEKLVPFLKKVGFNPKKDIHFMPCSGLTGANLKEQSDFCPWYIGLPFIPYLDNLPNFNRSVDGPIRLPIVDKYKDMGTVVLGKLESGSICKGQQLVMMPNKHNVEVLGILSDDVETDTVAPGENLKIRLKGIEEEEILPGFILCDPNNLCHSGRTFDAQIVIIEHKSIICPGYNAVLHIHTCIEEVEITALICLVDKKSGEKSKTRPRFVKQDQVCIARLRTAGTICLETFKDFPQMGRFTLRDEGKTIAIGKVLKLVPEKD
GSPT1, sequence (Q96SW2 whole entry): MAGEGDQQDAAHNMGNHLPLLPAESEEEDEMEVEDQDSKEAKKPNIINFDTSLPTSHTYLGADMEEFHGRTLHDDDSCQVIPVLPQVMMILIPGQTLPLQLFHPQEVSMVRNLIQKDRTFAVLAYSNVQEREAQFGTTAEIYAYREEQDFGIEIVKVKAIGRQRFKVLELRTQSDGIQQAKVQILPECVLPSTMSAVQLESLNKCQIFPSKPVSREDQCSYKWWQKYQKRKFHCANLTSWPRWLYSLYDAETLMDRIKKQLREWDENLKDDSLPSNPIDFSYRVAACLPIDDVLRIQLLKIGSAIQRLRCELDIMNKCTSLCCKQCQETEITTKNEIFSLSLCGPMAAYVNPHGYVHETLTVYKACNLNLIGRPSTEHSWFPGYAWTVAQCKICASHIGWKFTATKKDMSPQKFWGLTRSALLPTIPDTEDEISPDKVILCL
GSPT1, sequence (Q16531 whole entry partner): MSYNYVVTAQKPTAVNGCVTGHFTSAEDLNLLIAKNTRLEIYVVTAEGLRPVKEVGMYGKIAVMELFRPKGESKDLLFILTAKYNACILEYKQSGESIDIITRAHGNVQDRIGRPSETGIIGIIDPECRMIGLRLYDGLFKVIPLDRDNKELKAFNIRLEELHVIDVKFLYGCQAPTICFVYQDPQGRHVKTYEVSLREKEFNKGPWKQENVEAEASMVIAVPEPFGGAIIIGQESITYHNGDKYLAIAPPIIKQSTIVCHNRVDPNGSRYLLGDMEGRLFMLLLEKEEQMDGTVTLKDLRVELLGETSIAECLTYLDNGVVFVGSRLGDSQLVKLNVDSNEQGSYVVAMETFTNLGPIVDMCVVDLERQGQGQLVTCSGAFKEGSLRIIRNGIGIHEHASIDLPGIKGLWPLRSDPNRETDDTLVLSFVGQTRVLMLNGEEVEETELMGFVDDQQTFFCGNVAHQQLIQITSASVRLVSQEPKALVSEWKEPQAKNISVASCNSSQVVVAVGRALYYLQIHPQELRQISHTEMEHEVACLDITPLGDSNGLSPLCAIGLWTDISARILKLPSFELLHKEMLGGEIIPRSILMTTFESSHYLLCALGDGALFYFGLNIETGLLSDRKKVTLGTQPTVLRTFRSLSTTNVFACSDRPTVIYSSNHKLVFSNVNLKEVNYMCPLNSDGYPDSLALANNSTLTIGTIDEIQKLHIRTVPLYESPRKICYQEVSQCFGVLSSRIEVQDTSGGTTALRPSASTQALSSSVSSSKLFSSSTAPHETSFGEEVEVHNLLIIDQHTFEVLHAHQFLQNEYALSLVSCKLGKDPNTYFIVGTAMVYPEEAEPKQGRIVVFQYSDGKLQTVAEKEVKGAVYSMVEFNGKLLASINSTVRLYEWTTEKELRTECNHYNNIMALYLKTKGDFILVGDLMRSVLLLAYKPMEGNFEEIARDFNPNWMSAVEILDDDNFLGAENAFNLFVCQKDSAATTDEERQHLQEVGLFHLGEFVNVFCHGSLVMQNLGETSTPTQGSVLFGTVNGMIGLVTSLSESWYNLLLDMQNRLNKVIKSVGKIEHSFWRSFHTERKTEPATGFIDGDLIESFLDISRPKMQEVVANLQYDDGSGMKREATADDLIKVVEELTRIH
T1 sequence (P48729 whole entry): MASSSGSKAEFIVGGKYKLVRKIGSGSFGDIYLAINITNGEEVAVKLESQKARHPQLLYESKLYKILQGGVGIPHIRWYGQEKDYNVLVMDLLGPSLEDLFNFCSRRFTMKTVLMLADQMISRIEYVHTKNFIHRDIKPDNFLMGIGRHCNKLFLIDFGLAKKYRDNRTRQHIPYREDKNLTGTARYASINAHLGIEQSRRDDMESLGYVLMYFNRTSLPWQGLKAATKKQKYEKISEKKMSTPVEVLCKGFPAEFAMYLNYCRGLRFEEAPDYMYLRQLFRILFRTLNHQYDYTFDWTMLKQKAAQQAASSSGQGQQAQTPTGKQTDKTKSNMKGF
T1 sequence (Q96SW2 whole entry): as the sequence (Q96SW2 whole entry) above
T1 sequence (Q16531 whole entry partner): as the sequence (Q16531 whole entry partner) above

As for `Cn1ncc(-c2ccc3c(c2)CN(C2CCC(=O)NC2=O)C3=O)c1-c1cccc(F)c1F` (stereo not drawn) [Example 73], at CK1α (six hours incubation), the “CK1α Ymin” value is “E (E = >25-75% remaining)” and the half-maximal degradation concentration (DC50) is less than 25 nM. For the same molecule, at GSPT1 (six hours incubation), the DC50 is no less than 25 nM and the “GSPT1 Ymin” value was “F (F = >75-100% remaining)”.

As for `Cn1ncc(-c2ccc3c(c2)CN(C2CCC(=O)NC2=O)C3=O)c1-c1ccc(F)c(F)c1` (stereo not drawn) [Example 134], at CK1α (six hours incubation), the “CK1α Ymin” value was “E (E = >25-75% remaining)” and the half-maximal degradation concentration (DC50) is less than 25 nM. In addition, on GSPT1 (six hours incubation), the DC50 was no less than 25 nM and the “GSPT1 Ymin” value is “F (F = >75-100% remaining)”.

As for `Cn1cnc(-c2cc3c(s2)C(=O)N(C2CCC(=O)NC2=O)C3)c1-c1ccccc1` (stereo not drawn) [Example 16, 3-(2-(1-methyl-5-phenyl-1H-imidazol-4-yl)-6-oxo-4,6-dihydro-5H-thieno[2,3-c]pyrrol-5-yl)piperidine-2,6-dione], at CK1α (six hours incubation), the “CK1α Ymin” value was “E (E = >25-75% remaining)” and the DC50 was no less than 25 nM. Moreover, on GSPT1 (six hours incubation), the DC50 was no less than 25 nM and the “GSPT1 Ymin” value is listed as “F (F = >75-100% remaining)”.

Take `Cn1ncc(-c2ccc3c(c2)CN(C2CCC(=O)NC2=O)C3=O)c1C1=CCOC1` (stereo not drawn) [Example 593]: on CK1α (six hours), the “CK1α Ymin” value is “E (E = >25-75% remaining)” and the half-maximal degradation concentration (DC50) is no less than 25 nM. For the same molecule, at GSPT1 (six hours), the DC50 was no less than 25 nM and the “GSPT1 Ymin” value is “F (F = >75-100% remaining)”.

Consider `COc1ccc(-c2c(-c3ccc4c(c3)CN(C3CCC(=O)NC3=O)C4=O)cnn2C)cc1Cl` (stereo not drawn) [Example 146], for which, on CK1α (six hours incubation), the “CK1α Ymin” value was “D (D = >10- 25% remaining)” and the DC50 was less than 25 nM. Further, at GSPT1 (six hours incubation), the DC50 was no less than 25 nM and the “GSPT1 Ymin” value is “E (E = >25-75% remaining)”.

Turning to `Cn1cnc(-c2ccc3c(c2)CN(C2CCC(=O)NC2=O)C3=O)c1C1=CCOC1` (stereo not drawn) [Example 598], at CK1α (six hours), the “CK1α Ymin” value is on record as “D (D = >10- 25% remaining)” and the DC50 was less than 25 nM. Further, on GSPT1 (six hours), the DC50 is no less than 25 nM and the “GSPT1 Ymin” value was “E (E = >25-75% remaining)”.

In the case of `Cn1cnc(-c2ccc3c(c2)CN(C2CCC(=O)NC2=O)C3=O)c1-c1ccc(S(=O)(=O)N2CCCC2)cc1` (stereo not drawn) [Example 354], at CK1α (six hours incubation), the “CK1α Ymin” value was “E (E = >25-75% remaining)” and the DC50 is less than 25 nM. At GSPT1 (six hours incubation), the DC50 was less than 25 nM and the “GSPT1 Ymin” value is listed as “F (F = >75-100% remaining)”.

Regarding `COc1ccc(C)cc1-c1c(-c2ccc3c(c2)CN(C2CCC(=O)NC2=O)C3=O)cnn1C` (stereo not drawn) [Example 137], at CK1α (six hours incubation), the “CK1α Ymin” value is “E (E = >25-75% remaining)” and the DC50 was less than 25 nM. On GSPT1 (six hours incubation), the DC50 was less than 25 nM and the “GSPT1 Ymin” value was “F (F = >75-100% remaining)”.

Consider `O=C1CCC(N2Cc3cc(-c4sncc4-c4ccccc4)ccc3C2=O)C(=O)N1` (stereo not drawn) [Example 31, 3-(1-Oxo-5-(4-phenylisothiazol-5-yl)isoindolin-2-yl) piperidine-2,6-dione], for which, at CK1α (six hours incubation), the “CK1α Ymin” value is “E (E = >25-75% remaining)” and the DC50 was no less than 25 nM. At GSPT1 (six hours incubation), the DC50 was no less than 25 nM and the “GSPT1 Ymin” value is given as “F (F = >75-100% remaining)”.

`Cn1cnc(-c2ccc3c(c2)CN(C2CCC(=O)NC2=O)C3=O)c1-c1ccc(-c2ccc(O)cc2)cc1` (stereo not drawn) [Example 298]: on CK1α (six hours incubation), the “CK1α Ymin” value is “E (E = >25-75% remaining)” and the DC50 is less than 25 nM. In addition, at GSPT1 (six hours incubation), the DC50 is no less than 25 nM and the “GSPT1 Ymin” value is on record as “F (F = >75-100% remaining)”.

For `CN1CCN(Cc2ccc(-c3c(-c4ccc5c(c4)CN(C4CCC(=O)NC4=O)C5=O)cnn3C)cc2)CC1` (stereo not drawn) [Example 154], on CK1α (six hours incubation), the “CK1α Ymin” value is listed as “E (E = >25-75% remaining)” and the 50% degradation concentration (DC50) is no less than 25 nM. Moreover, on GSPT1 (six hours incubation), the 50% degradation concentration (DC50) was no less than 25 nM and the “GSPT1 Ymin” value is “F (F = >75-100% remaining)”.

Take `Cn1cnc(-c2ccc3c(c2)CN(C2CCC(=O)NC2=O)C3=O)c1-c1ccc2c(c1)CCO2` (stereo not drawn) [Example 443]: at CK1α (six hours), the “CK1α Ymin” value is reported as “C (C = 0-10% remaining)” and the DC50 was less than 25 nM. On GSPT1 (six hours), the half-maximal degradation concentration (DC50) was less than 25 nM and the “GSPT1 Ymin” value is recorded as “E (E = >25-75% remaining)”.

As to `Cn1cnc(-c2ccc3c(c2)CN(C2CCC(=O)NC2=O)C3=O)c1-c1cn[nH]c1` (stereo not drawn) [Example 531], on CK1α (six hours), the “CK1α Ymin” value is “C (C = 0-10% remaining)” and the DC50 is no less than 25 nM. Moreover, at GSPT1 (six hours), the DC50 was no less than 25 nM and the “GSPT1 Ymin” value is “E (E = >25-75% remaining)”.

As for `Cn1cnc(-c2ccc3c(c2)CN(C2CCC(=O)NC2=O)C3=O)c1-c1cc[nH]n1` (stereo not drawn) [Example 504], at CK1α (six hours), the “CK1α Ymin” value is “D (D = >10- 25% remaining)” and the DC50 is no less than 25 nM. At GSPT1 (six hours), the DC50 was no less than 25 nM and the “GSPT1 Ymin” value is “F (F = >75-100% remaining)”.

For the molecule `Cn1cnc(-c2ccc3c(c2)CN(C2CCC(=O)NC2=O)C3=O)c1-c1ccc(=O)n(C)c1` (stereo not drawn) [Example 400], on CK1α (six hours), the “CK1α Ymin” value is “D (D = >10- 25% remaining)” and the DC50 was no less than 25 nM. At GSPT1 (six hours), the DC50 is no less than 25 nM and the “GSPT1 Ymin” value is given as “F (F = >75-100% remaining)”.

Consider `Cn1nc(-c2ccccc2)cc1-c1ccc2c(c1)CN(C1CCC(=O)NC1=O)C2=O` (stereo not drawn) [Example 35, 3-(5-(1-Methyl-3-phenyl-1H-pyrazol-5-yl)-1-oxoisoindolin-2-yl)piperidine-2,6-dione], for which, on CK1α (six hours incubation), the “CK1α Ymin” value is on record as “F (F = >75-100% remaining)” and the DC50 is no less than 25 nM. Further, at GSPT1 (six hours incubation), the DC50 is no less than 25 nM and the “GSPT1 Ymin” value is recorded as “F (F = >75-100% remaining)”.

As to `Cc1ccc(-c2c(-c3ccc4c(c3)CN(C3CCC(=O)NC3=O)C4=O)cnn2C)cn1` (stereo not drawn) [Example 367], on CK1α (six hours incubation), the “CK1α Ymin” value was “C (C = 0-10% remaining)” and the DC50 is less than 25 nM. Besides, on GSPT1 (six hours incubation), the DC50 is less than 25 nM and the “GSPT1 Ymin” value was “F (F = >75-100% remaining)”.

As to `Cn1c(C2CC2)nc(-c2ccc3c(c2)CN(C2CCC(=O)NC2=O)C3=O)c1-c1cnc(C2CC2)nc1` (stereo not drawn) [Example 548, 3-(5-(2-cyclopropyl-5-(2-cyclopropylpyrimidin-5-yl)-1-methyl-1H-imidazol-4-yl)-1-oxoisoindolin-2-yl)piperidine-2,6-dione], on CK1α (six hours), the “CK1α Ymin” value is “D (D = >10- 25% remaining)” and the DC50 was less than 25 nM. Further, at GSPT1 (six hours), the DC50 was no less than 25 nM and the “GSPT1 Ymin” value is “F (F = >75-100% remaining)”.

Take `Cn1cnc(-c2ccc3c(c2)CN(C2CCC(=O)NC2=O)C3=O)c1-c1ccc2c(cnn2C)c1` (stereo not drawn) [Example 513]: on CK1α (six hours), the “CK1α Ymin” value was “C (C = 0-10% remaining)” and the DC50 was less than 25 nM. In addition, on GSPT1 (six hours), the half-maximal degradation concentration (DC50) was no less than 25 nM and the “GSPT1 Ymin” value is listed as “F (F = >75-100% remaining)”.

Take `Cc1ccc(-c2c(-c3ccc4c(c3)CN(C3CCC(=O)NC3=O)C4=O)cnn2C)cc1CO` (stereo not drawn) [Example 157]: at CK1α (six hours incubation), the “CK1α Ymin” value is on record as “E (E = >25-75% remaining)” and the 50% degradation concentration (DC50) is no less than 25 nM. Also, at GSPT1 (six hours incubation), the DC50 is no less than 25 nM and the “GSPT1 Ymin” value is “F (F = >75-100% remaining)”.

As to `Cn1ncc(-c2ccc3c(c2)CN(C2CCC(=O)NC2=O)C3=O)c1-c1ccc(Cl)s1` (stereo not drawn) [Example 68], on CK1α (six hours incubation), the “CK1α Ymin” value is “D (D = >10- 25% remaining)” and the 50% degradation concentration (DC50) is less than 25 nM. Moreover, at GSPT1 (six hours incubation), the DC50 was no less than 25 nM and the “GSPT1 Ymin” value is reported as “F (F = >75-100% remaining)”.

Consider `Cn1ncc(-c2ccc3c(c2)CN(C2CCC(=O)NC2=O)C3=O)c1-c1cncc(OCc2ccccc2)c1` (stereo not drawn) [Example 467], for which, at CK1α (six hours), the “CK1α Ymin” value is reported as “F (F = >75-100% remaining)” and the 50% degradation concentration (DC50) was no less than 25 nM. Further, the DC50 at GSPT1 (six hours) was no less than 25 nM.
